From US12213480B2, “Biocidal formulation” (For Spills Ltd., priority 2018, dated 2025)

Assays:
Assay in all cases: Suspension test of biocide with or without perlite, 1 minute contact
[1] = system: Aspergillus brasiliensis ATCC 16404
[2] = system: Pseudomonas aeruginosa ATCC 15442
[3] = system: Staphylococcus aureus ATCC 6538

## CC1(C)C(=O)N(Cl)C(=O)N1Br [BDCMH]
[1]
  R reduction in viability: −0.01 Log 10
[1]; dilution N, duplicate plates
  Vc viable count: >165; >165 cfu
[1]; dilution −1, duplicate plates
  Vc viable count: >165; >165 cfu
[1]; dilution −2, duplicate plates
  Vc viable count: >165; >165 cfu
[1]; dilution −3, duplicate plates
  Vc viable count: >165; >165 cfu
[2]
  R reduction in viability: 1.00 Log 10
[2]; dilution −1, duplicate plates
  Vc viable count: >330; >330 cfu
[2]; dilution −2, duplicate plates
  Vc viable count: >330; >330 cfu
[2]; dilution −3, duplicate plates
  Vc viable count: >330; >330 cfu
[3]
  R reduction in viability: 1.92 Log 10
[3]; dilution −1, duplicate plates
  Vc viable count: >330; >330 cfu
[3]; dilution −2, duplicate plates
  Vc viable count: >330; >330 cfu

## O=c1nc([O-])n(Cl)c(=O)n1Cl.[Na+] [Sodium Dichloroisocyanurate, sodium dichloroisocyanurate]
[1]
  R reduction in viability: 2.84 Log 10
[1]; dilution N, duplicate plates
  Vc viable count: >165; >165 cfu
[2]
  R reduction in viability: 3.71 Log 10
[3]
  R reduction in viability: >6.23 Log 10
